Data: paper PMC8037182, “Solvothermal Synthesis of Multiple Dihydropyrimidinones at a Time as Inhibitors of Eg5” (Molecules, 2021)
pIC50: −log10 of the molar value.

Legend:
L929 cell line = test: Cytotoxicity MTS assay, L929 cell line; assay type: cell-based; conditions: for OD490 values, Mean / OD490 values, Well 1 / OD490 values, Well 2 / OD490 values, Well 3: L929 cell line
Description: (§1) The positive compounds (IC50 < 100 μM) obtained from the primary Eg5 motor protein ATPase assay were tested for antiproliferative activity in vitro against Caco-2 cell line, Hela cell line, L929 cell line and T24 cell line by performing MTS assay. Cells were introduced into 96-well plates at a density of 1000 cells per well. After 24 h incubation, the cells were exposed with compounds at final concentrations ranging from 0.5 to 100 µM for 24 h. DMSO was used at a final concentration of 0.025% as blank control, monastrol was used as the positive control. Then 20 µL (CellTiter 96® AQueous One Solution Promega, Madison, WI, USA) reagent was added in each well. After 2 h at 37 °C in a 80% humidified, 5% CO2 atmosphere, the absorbance at 490 nm was recorded using a microplate reader (BIO-RAD iMark^TM). The results were obtained in three independent duplicate experiments. The primary data were shown in Supplementary Materials Tables S4–S7. The IC50 values for these compounds were calculated from a non-linear regression graph plotted between the percentage of cell viability and concentration with SPSS17.0 software.

Hela cell line = test: Cytotoxicity MTS assay, Hela cell line; assay type: cell-based; conditions: for OD490 value, Mean / OD490 value, Well 1 / OD490 value, Well 2 / OD490 value, Well 3: Hela cell line, MTS
Description: as §1

## CCOC(=O)c1[nH]c(C2NC(=O)NC(C)=C2C(=O)Nc2ccccc2C)c(C(=O)OC)c1C (centres unmarked) [D4]
L929 cell line; 0.5μM, first assay
  OD490 values, Mean: 1.2390
  OD490 values, Well 1: 1.2664
  OD490 values, Well 2: 1.2769
  OD490 values, Well 3: 1.1737
L929 cell line; 0.5μM, second assay
  OD490 values, Mean: 1.6699
  OD490 values, Well 1: 1.5847
  OD490 values, Well 2: 1.7925
  OD490 values, Well 3: 1.6324
L929 cell line; 0.5μM, third assay
  OD490 values, Mean: 1.6193
  OD490 values, Well 1: 1.5741
  OD490 values, Well 2: 1.5987
  OD490 values, Well 3: 1.6852
L929 cell line; 1μM, first assay
  OD490 values, Mean: 1.1804
  OD490 values, Well 1: 1.2290
  OD490 values, Well 2: 1.2817
  OD490 values, Well 3: 1.0306
L929 cell line; 1μM, second assay
  OD490 values, Mean: 1.6792
  OD490 values, Well 1: 1.5848
  OD490 values, Well 2: 1.6985
  OD490 values, Well 3: 1.7542
L929 cell line; 1μM, third assay
  OD490 values, Mean: 1.5459
  OD490 values, Well 1: 1.5698
  OD490 values, Well 2: 1.5478
  OD490 values, Well 3: 1.5202
L929 cell line; 10μM, first assay
  OD490 values, Mean: 1.0446
  OD490 values, Well 1: 1.1408
  OD490 values, Well 2: 0.9532
  OD490 values, Well 3: 1.0397
L929 cell line; 10μM, second assay
  OD490 values, Mean: 1.6098
  OD490 values, Well 1: 1.5562
  OD490 values, Well 2: 1.5879
  OD490 values, Well 3: 1.6852
L929 cell line; 10μM, third assay
  OD490 values, Mean: 1.5291
  OD490 values, Well 1: 1.5364
  OD490 values, Well 2: 1.5879
  OD490 values, Well 3: 1.4630
L929 cell line; 25μM, first assay
  OD490 values, Mean: 0.9627
  OD490 values, Well 1: 0.8216
  OD490 values, Well 2: 0.8395
  OD490 values, Well 3: 1.2269
L929 cell line; 25μM, second assay
  OD490 values, Mean: 1.4236
  OD490 values, Well 1: 1.4545
  OD490 values, Well 2: 1.4879
  OD490 values, Well 3: 1.3285
L929 cell line; 25μM, third assay
  OD490 values, Mean: 1.2968
  OD490 values, Well 1: 1.3325
  OD490 values, Well 2: 1.3214
  OD490 values, Well 3: 1.2365
L929 cell line; 50μM, first assay
  OD490 values, Mean: 0.9261
  OD490 values, Well 1: 0.8106
  OD490 values, Well 2: 0.9635
  OD490 values, Well 3: 1.0043
L929 cell line; 50μM, second assay
  OD490 values, Mean: 1.2976
  OD490 values, Well 1: 1.3201
  OD490 values, Well 2: 1.2240
  OD490 values, Well 3: 1.3487
L929 cell line; 50μM, third assay
  OD490 values, Mean: 1.2105
  OD490 values, Well 1: 1.1145
  OD490 values, Well 2: 1.2301
  OD490 values, Well 3: 1.2869
L929 cell line; 100μM, first assay
  OD490 values, Mean: 0.7075
  OD490 values, Well 1: 0.8384
  OD490 values, Well 2: 0.6461
  OD490 values, Well 3: 0.6379
L929 cell line; 100μM, second assay
  OD490 values, Mean: 0.8731
  OD490 values, Well 1: 0.9062
  OD490 values, Well 2: 0.8662
  OD490 values, Well 3: 0.8469
L929 cell line; 100μM, third assay
  OD490 values, Mean: 0.8397
  OD490 values, Well 1: 0.8652
  OD490 values, Well 2: 0.7214
  OD490 values, Well 3: 0.9325
L929 cell line; MTS assay, 24 h exposure, ordinary fibroblast, not cancer cells
  pIC50: 4.02
Hela cell line; 0.5μM, first assay
  OD490 value, Mean: 2.5619
  OD490 value, Well 1: 2.3169
  OD490 value, Well 2: 2.6787
  OD490 value, Well 3: 2.6902
Hela cell line; 0.5μM, second assay
  OD490 value, Mean: 2.6585
  OD490 value, Well 1: 2.7756
  OD490 value, Well 2: 2.2036
  OD490 value, Well 3: 2.9963
Hela cell line; 0.5μM, third assay
  OD490 value, Mean: 2.6298
  OD490 value, Well 1: 2.6541
  OD490 value, Well 2: 2.5689
  OD490 value, Well 3: 2.6665
Hela cell line; 1μM, first assay
  OD490 value, Mean: 2.4999
  OD490 value, Well 1: 2.4427
  OD490 value, Well 2: 2.5466
  OD490 value, Well 3: 2.5103
Hela cell line; 1μM, second assay
  OD490 value, Mean: 2.6707
  OD490 value, Well 1: 2.6654
  OD490 value, Well 2: 2.6879
  OD490 value, Well 3: 2.6588
Hela cell line; 1μM, third assay
  OD490 value, Mean: 2.5654
  OD490 value, Well 1: 2.6540
  OD490 value, Well 2: 2.5421
  OD490 value, Well 3: 2.5000
Hela cell line; 10μM, first assay
  OD490 value, Mean: 2.7063
  OD490 value, Well 1: 2.6331
  OD490 value, Well 2: 2.7562
  OD490 value, Well 3: 2.7295
Hela cell line; 10μM, second assay
  OD490 value, Mean: 2.7726
  OD490 value, Well 1: 2.6985
  OD490 value, Well 2: 2.7856
  OD490 value, Well 3: 2.8336
Hela cell line; 10μM, third assay
  OD490 value, Mean: 2.5863
  OD490 value, Well 1: 2.3545
  OD490 value, Well 2: 2.7454
  OD490 value, Well 3: 2.6589
Hela cell line; 25μM, first assay
  OD490 value, Mean: 2.5844
  OD490 value, Well 1: 2.5014
  OD490 value, Well 2: 2.5977
  OD490 value, Well 3: 2.6541
Hela cell line; 25μM, second assay
  OD490 value, Mean: 2.6351
  OD490 value, Well 1: 2.6354
  OD490 value, Well 2: 2.6289
  OD490 value, Well 3: 2.6410
Hela cell line; 25μM, third assay
  OD490 value, Mean: 2.6063
  OD490 value, Well 1: 2.5658
  OD490 value, Well 2: 2.6542
  OD490 value, Well 3: 2.5988
Hela cell line; 50μM, first assay
  OD490 value, Mean: 2.4897
  OD490 value, Well 1: 2.2013
  OD490 value, Well 2: 2.5633
  OD490 value, Well 3: 2.7046
Hela cell line; 50μM, second assay
  OD490 value, Mean: 2.4794
  OD490 value, Well 1: 2.5532
  OD490 value, Well 2: 2.4198
  OD490 value, Well 3: 2.4652
Hela cell line; 50μM, third assay
  OD490 value, Mean: 2.5366
  OD490 value, Well 1: 2.4650
  OD490 value, Well 2: 2.5462
  OD490 value, Well 3: 2.5985
Hela cell line; 100μM, first assay
  OD490 value, Mean: 1.9103
  OD490 value, Well 1: 1.9024
  OD490 value, Well 2: 1.9524
  OD490 value, Well 3: 1.8761
Hela cell line; 100μM, second assay
  OD490 value, Mean: 2.0041
  OD490 value, Well 1: 2.0124
  OD490 value, Well 2: 2.0036
  OD490 value, Well 3: 1.9963
Hela cell line; 100μM, third assay
  OD490 value, Mean: 1.9351
  OD490 value, Well 1: 1.8989
  OD490 value, Well 2: 1.9478
  OD490 value, Well 3: 1.9587
Hela cell line; MTS assay, 24 h exposure
  pIC50: < 3.82
